What is called Kd is the free concentration of one partner at which half of the binding sites on the other are occupied at equilibrium, for simple one-to-one binding.

Here are results for six compounds from paper PMC10060354, “Discovery of a small molecule ligand of FRS2 that inhibits invasion and tumor growth” (Cellular Oncology, 2022).

Several values for one entry are separate records, joined by “and”; a condition that tells them apart may be missing. Equal values may be shown once. Read-outs that look alike come from different tables or passages of the source.

Data set [1] has as its system AKT(pS473). Description: Immunoblotting, AKT phosphorylation. In kind it is cell-based, human. The following applies: SW780 cells. The procedure: Cells were serum starved o.n. and 10 µM compound or 1 µM (BGJ398) were added 3 h before stimulation with 100 ng/ml bFGF for 15 min. Cells were lysed in RIPA buffer containing protease inhibitor cocktail and lysates resolved by SDS-PAGE. Membranes were probed with primary antibodies against phospho-FRS2, FRS2, phospho-ERK1/2, ERK1/2, pAKT, AKT and tubulin. Integrated density of immuno-reactive bands was quantified using Adobe Photoshop CS3. Integrated densities of phospho bands relative to non-phospho bands of same protein were calculated and plotted as fold-change relative to untreated control conditions. Compounds and BGJ398 were added in DMSO and corresponding DMSO concentrations were used in control samples.

Data set [2] relates to Caco-2 cells. Kind of data set: CaCo-2 permeability (bi-directional). The following applies: Direction A2B. An outline of the steps: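 Caco-2 monolayers (passage 40–60) cultured 20 days on Transwells, equilibrated 40 min in HBSS; compound dosed apically (A-B) or basolaterally (B-A) with 1% v/v DMSO and lucifer yellow integrity marker, in duplicate. LC–MS/MS quantification; Papp from permeation rate, C0 and monolayer area; efflux ratio = Papp(B-A)/Papp(A-B).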
In general terms: Passage across Caco-2 layers is used to estimate intestinal permeability.

Data set [3] concerns DAOY cells. Kind of data set: SIA, EGF-induced cell invasion. Type of data set: cell-based, human. The conditions noted are these: 10 µM. The protocol:
1000—2500 cells/well in 100 μl were seeded in 96 well Corning® Spheroid microplate (CLS4520, Sigma-Aldrich) or in cell-repellent 96 well microplate (650,790, Greiner Bio-one). SIA and analysis was performed as described before. In brief: After spheroid formation (24 – 72 h after seeding), 70 µl medium was removed and replaced with the collagen mixture (2.5 mg/ml Pure Col Collagen I (Advanced Biomatrix)), DMEM 1x (from 10 × stock, Sigma, D2429) and 0.4% Sodium bicarbonate (Sigma, S8761)), resulting in a final collagen concentration of 1.75 mg/ml. Embedded spheroids were stimulated with bFGF (100 ng/ml if not otherwise stated), HGF (30 ng /ml) or EGF (20 ng/ml) and distance of invaded cells quantified 24 – 48 h after embedding. Compounds and BGJ398 were added in Dimethylsulfoxid (DMSO) and corresponding DMSO concentrations were used in control samples.

The test system of data set [4] is pFRS2Y436. Kind of data set: IHC of pFRS2Y436 in SKOV3 flank tumor samples. Type of data set: in vivo, mice. The conditions noted are these: SKOV3 model; end of treatment. The protocol:
IHC of tumor sections was performed by Sophistolab (Muttenz, Switzerland) on a Lecia BondMax instrument using Refine HRP-Kits (Leica DS9800). All buffer-solutions were purchased from Lecia Microsystems Newcastle, Ltd and used according to the manufacturer’s guidelines. Paraffin-slides were de-waxed, pre-treated and incubated as follows: ER-solution 2 for 10 min at 95 °C, ER-solution 2 for 20 min at 100 °C and ER-solution 2 for 30 min at 100 °C. pFRS2; Rabbit anti-Phospho FRS2 (PhosphoY 436, Abcam Limited; ab193363), dilution 1:150; phospho-p44/42 MAPK (Erk1/2Thr202/Tyr204) Rabbit mAb (Cell Signaling Technology #4370), dilution 1:1600. The IHC images were captured digitally using a Nikon Epifluorescence Eclipse Ti2 equipped with a Nikon DS-Ri2 color and a Nikon DS-Qi2 monochrome camera.

Data set [5] can be described thus: Solubility at the concentration required for the biophysical assays. In kind it is physicochemical. The conditions noted are these: 5% DMSO.
Data set [6] addresses T1, GB1-FRS2-PTB (Homo sapiens, UniProt Q8WU20).
T1 construct: FRS2-PTB 11-140aa; 6xHis (N); made in house; host or cells: E. coli BL21 (DE3)
T1 sequence (Q8WU20 11-140): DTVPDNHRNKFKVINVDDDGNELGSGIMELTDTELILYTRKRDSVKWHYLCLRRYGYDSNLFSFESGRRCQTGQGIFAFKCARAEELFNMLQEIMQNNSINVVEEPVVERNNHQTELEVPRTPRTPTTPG
Description: Microscale thermophoresis (MST). In kind it is binding. The following applies: for Kd: GB1-FRS2_PTB; for binding by MST trace analysis (result in words): signal:noise ratio > 5 counts as binding. The protocol:
Protein labeling for MST was performed with the 2nd Generation BLUE-NHS dye. GB1-FRS2_PTB- was labelled at 20 μM with 60 μM dye and incubated for 30 min in the dark at room temperature. The labelling was performed in the protein buffer without arginine supplementation. It was rebuffered to protein buffer (100 mM sodium phosphate, 50 mM NaCl, 0.5 mM EDTA, 50 mM arginine, 1 mM TCEP, pH 7.0). The dye was subsequently removed by gravitational flow chromatography and the protein concentration determined by UV-spectroscopy. The assay was established with the FGFR_PEP. […] A total volume of 10 μl of 50 nM labelled protein was added to 10 μl of the peptide dilution series for a final labelled protein concentration of 25 nM. The samples were incubated for 15 min at RT. […] Temperature was set to 25 °C. Each measurement was repeated twice. The interaction was measured in duplicates for the non-DMSO-supplemented buffer and in triplicates for DMSO-supplemented buffer. […] The samples were incubated for 15 min, and MST assessed as described above. Each measurement was repeated twice. The interaction was measured in two independent duplicates. […] The mixture was then measured for their initial fluorescence once. MST-experiments were performed with MO.Control vers. 1.6 (NanoTemper Technologies, Munich, Germany) and data analyzed with MO.Analysis vers. 2.3 (NanoTemper Technologies, Munich, Germany). Data was plotted with GraphPad Prism vers. 8.3.0 (GraphPad Software, San Diego, USA).
A general note: In MST a laser heats a spot of the sample, and binding alters the fluorescence response.

[7] abbreviates: read-out: KD, initial fluorescence change analysis.

`Cc1[nH]nc(-c2ccc(O)c(C)c2O)c1-c1nc2ccccc2s1` [Compound E12]: in data set [1], the “pAKT (result in words)” value is “increase in pAKT”.
For `N#Cc1c(Cl)cc(O)c2c1C1C=CCC1C(c1ccc(Cl)cc1)N2` (stereo not shown) [Compound 14], the “Comments: A2B permeation (result in words)” value in data set [2] is recorded as “Test compound not detectable in receiver compartments A2B”. Moreover, the “effect on EGF-induced cell invasion (result in words)” value in data set [3] is listed as “only moderately reduced”.
With `O=[N+]([O-])c1c(Cl)cc(O)c2c1C1C=CCC1C(c1ccc(Cl)cc1)N2` (stereo not shown) [Compound 7], the “pFRS2 Y436 in tumor tissues by IHC (result in words)” value in data set [4] is given as “No clear difference in pFRS2 Y436”. For the same compound, the “solubility for biophysical assays (result in words)” value in data set [5] is listed as “soluble in 5% DMSO”. In addition, the “effect on EGF-induced cell invasion (result in words)” value in data set [3] is “only moderately reduced”.
Turning to `CC(C)C[C@@H](CO)NCc1cc(O)c2cc(F)ccc2n1` [Compound 3.14], the equilibrium dissociation constant (Kd) in data set [6] (fitting with signal-noise ratio < 5 is considered no binding, read-out: KD, MST trace analysis) was 150 µM and 400 µM; in data set [6] (setting [7]) it was 19.6 µM and 12.8 µM and 12.8 to 19.6 µM. For the same compound, in data set [6], the “binding by MST trace analysis (result in words)” value is listed as “did show binding”.
On to `O=[N+]([O-])c1c(Cl)cc(O)c2c1C1C=CCC1C(c1ccc(Cl)cc1Cl)N2` (stereo not shown) [Compound 8], for which the “Comments: A2B permeation (result in words)” value in data set [2] is on record as “Test compound not detectable in receiver compartments A2B”. The “solubility for biophysical assays (result in words)” value in data set [5] was “soluble in 5% DMSO”.
Take `COc1ncc(C(C)NC2CC(C)(C)NC(C)(C)C2)cc1Cl` (stereo not shown) [Compound 3.3]: in data set [6] (setting [7]), the Kd is 3.1 µM and 4 µM. In data set [6], the “binding by MST trace analysis (result in words)” value is listed as “no binding was detected”.
